What was measured:
TYK2 Pseudokinase (JH2) [1] = experiment: HEK-Blue IL-23 reporter assay (SEAP) for profiling TYK2 pseudokinase (JH2) inhibition; type: cell-based; settings: HEK-Blue IL-23 cells, 10 ng/mL human recombinant IL-23, SEAP reporter; read-out: IL23 IC50 (TYK2 inhibitory activity)
Procedure: (§1) HEK-Blue™ IL-23 and IFNα/β cells with a stably-integrated cytokine receptor and STAT3 or STAT1 express STAT-inducible secreted embryonic alkaline phosphatase (SEAP) reporter gene upon cytokine stimulation. These cells are plated in DMEM (Gibco) containing 10% heat-inactivated FBS (Gibco) and 100 U/mL PenStrep (Gibco) at 37° C. under 5% CO2 conditions for 20-22 hours. The cells are then pretreated with serially diluted test compounds for 60 min prior to stimulation with either 10 ng/mL human recombinant IL-23 (Miltenyl Biotech) or 1 ng/mL human recombinant IFNα (InvivoGen) for 22-24 hours for IL-23 or 16-18 h for IFNα. SEAP induction is measured using the QUANTI Blue™ Solution (InvivoGen) according to the manufacturer's instructions.

TYK2 Pseudokinase (JH2) [2] = experiment: HEK-Blue IFNα/β reporter assay (SEAP) for profiling TYK2 pseudokinase (JH2) inhibition; type: cell-based; settings: HEK-Blue IFNα/β cells, 1 ng/mL human recombinant IFNα, read-out: IFNα IC50 (TYK2 inhibitory activity)
Procedure: as §1

TYK2-JH1 = biological target: T1, TYK2-JH1 (Homo sapiens, UniProt P29597); experiment: HTRF-based selectivity assay, TYK2 catalytic domain; type: biochemical; settings: kinase domain (JH1), 20 μM ATP
T1 construct: using a recombinant purified His or GST-tagged catalytic domain for each enzyme; made in house
T1 sequence (P29597 897-1176 limits assumed): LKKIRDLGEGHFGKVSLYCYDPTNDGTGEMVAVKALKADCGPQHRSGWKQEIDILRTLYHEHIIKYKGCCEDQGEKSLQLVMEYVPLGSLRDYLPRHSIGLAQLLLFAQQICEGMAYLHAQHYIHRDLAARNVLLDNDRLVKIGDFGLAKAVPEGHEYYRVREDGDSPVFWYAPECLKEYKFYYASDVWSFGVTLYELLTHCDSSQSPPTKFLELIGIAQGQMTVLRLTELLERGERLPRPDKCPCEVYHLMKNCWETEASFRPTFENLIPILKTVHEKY
Procedure: (§2) The ability of compounds to inhibit the activity of JAK1, JAK2, JAK3 and TYK2 is measured using a recombinant purified His or GST-tagged catalytic domain for each enzyme (JAK1, JAK2 and TYK2 are generated in-house; JAK3 was purchased from Carna biosciences, Cat #08-046) in an HTRF format biochemical assay. The reactions employs a commercial peptide substrate from Cisbio (Cat #62TK0PEC). The basic assay protocol is as follows: first, 2.5 μL of diluted compounds (4×) in DMSO are dispensed into a 384-well Optiplate. Next, 2.5 μL of enzyme (final concentrations for enzymes are: TYK2-700 ng/mL, JAK1-80.6 ng/ml, JAK2-2.1 ng/ml and JAK3-171.8 ng/mL) is added and incubated at RT for 5-20 min. Finally, 5 μl of mixture of 2×ATP [Final concentration 20 μM for TYK2, 21.43 μM for JAK1, 14.7 μM for JAK2 and 2.12 μM for JAK3]+2× Substrate [Final concentration 217 nM for TYK2, 454.7 nM for JAK1, 200 nM for JAK2 and 257.4 nM for JAK3] is added to 384 well Optiplate. Composition of Kinase assay buffer used in the assay is as follows: HEPES 50 mM, EGTA 1 mM, MgCl2 10 mM, DTT 2 mM, Tween-20 0.01% and water. Then the plates are shaken and then incubated at 26.5° C. for 60 min.

JAK1-JH1 = biological target: T2, JAK1-JH1 (Homo sapiens, UniProt P23458); experiment: HTRF-based selectivity assay, JAK1 catalytic domain; type: biochemical; settings: kinase domain (JH1), 21.43 μM ATP
T2 construct: using a recombinant purified His or GST-tagged catalytic domain for each enzyme; made in house
T2 sequence (P23458 875-1153 limits assumed): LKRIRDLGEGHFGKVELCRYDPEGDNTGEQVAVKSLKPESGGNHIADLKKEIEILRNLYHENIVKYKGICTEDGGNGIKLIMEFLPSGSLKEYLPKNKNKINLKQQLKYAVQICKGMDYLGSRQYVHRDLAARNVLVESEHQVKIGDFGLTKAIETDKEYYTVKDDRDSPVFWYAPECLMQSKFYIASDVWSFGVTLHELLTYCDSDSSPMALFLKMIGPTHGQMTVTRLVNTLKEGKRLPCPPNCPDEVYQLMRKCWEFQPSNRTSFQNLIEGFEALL
Procedure: as §2

JAK2-JH1 = biological target: T3, JAK2-JH1 (Homo sapiens, UniProt O60674); experiment: HTRF-based selectivity assay, JAK2 catalytic domain; type: biochemical; settings: kinase domain (JH1), 14.7 μM ATP
T3 construct: using a recombinant purified His or GST-tagged catalytic domain for each enzyme; made in house
T3 sequence (O60674 849-1124 limits assumed): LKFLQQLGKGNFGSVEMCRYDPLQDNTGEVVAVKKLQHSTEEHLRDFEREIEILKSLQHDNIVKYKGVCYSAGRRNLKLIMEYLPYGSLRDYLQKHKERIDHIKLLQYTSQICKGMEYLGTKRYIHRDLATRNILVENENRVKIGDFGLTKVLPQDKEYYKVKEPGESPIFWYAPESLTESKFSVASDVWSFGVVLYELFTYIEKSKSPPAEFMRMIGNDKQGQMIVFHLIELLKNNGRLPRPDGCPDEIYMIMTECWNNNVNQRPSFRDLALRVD
Procedure: as §2

JAK3-JH1 = biological target: T4, JAK3-JH1 (Homo sapiens, UniProt P52333); experiment: HTRF-based selectivity assay, JAK3 catalytic domain; type: biochemical; settings: kinase domain (JH1), 2.12 μM ATP
T4 construct: using a recombinant purified His or GST-tagged catalytic domain for each enzyme; purchased Carna biosciences 08-046
T4 sequence (P52333 822-1111 limits assumed): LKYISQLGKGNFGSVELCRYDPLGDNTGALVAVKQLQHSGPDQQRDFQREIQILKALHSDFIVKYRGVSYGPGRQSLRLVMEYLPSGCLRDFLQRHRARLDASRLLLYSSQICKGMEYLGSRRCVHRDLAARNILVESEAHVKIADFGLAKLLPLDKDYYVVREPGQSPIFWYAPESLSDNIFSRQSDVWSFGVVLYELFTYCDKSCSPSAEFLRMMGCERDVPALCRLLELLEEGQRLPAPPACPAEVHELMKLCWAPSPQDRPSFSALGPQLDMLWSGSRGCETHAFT
Procedure: as §2

[3] = test system: HEK-Blue IL-2 reporter cells; experiment: HEK-Blue IL-2 reporter assay (SEAP) for determining selectivity; type: cell-based; settings: HEK-Blue IL-2 cells, 4 ng/ml human recombinant IL-2, SEAP reporter
Procedure: (§3) HEK-Blue™ IL-2 and IFNγ reporter cells with a stably-integrated cytokine receptor and STAT5 or STAT1 express STAT-inducible secreted embryonic alkaline phosphatase (SEAP) reporter gene upon cytokine stimulation. These cells were plated in DMEM (Gibco) containing 10% heat-inactivated FBS (Gibco) and 100 U/mL PenStrep (Gibco) at 37° C. under 5% CO2 conditions for 20-22 hours. The cells were then pretreated with serially diluted test compounds for 60 min prior to stimulation with either 4 ng/ml human recombinant IL-2 (Miltenyl Biotech) or 50 ng/ml human recombinant IFNγ (InvivoGen) for 24 hours. SEAP induction was measured using the QUANTI-Blue™ Solution (InvivoGen) according to the manufacturer's instructions.

[4] = test system: HEK-Blue IFNγ reporter cells; experiment: HEK-Blue IFNγ reporter assay (SEAP) for determining selectivity; type: cell-based; settings: 50 ng/ml human recombinant IFNγ, read-out: IFN-γ IC50 (SEAP selectivity)
Procedure: as §3

Structure (SMILES) | IC50 (TYK2 Pseudokinase (JH2) [1]) [nM] | IC50 (TYK2 Pseudokinase (JH2) [2]) [nM] | IC50 (TYK2-JH1) [nM] | IC50 (JAK1-JH1) [nM] | IC50 (JAK2-JH1) [nM] | IC50 (JAK3-JH1) [nM] | IC50 [3] [nM] | IC50 [4] [nM]
[2H]C([2H])([2H])NC(=O)c1cnc(NC(=O)C2CC2)cc1Nc1cccc2c1N(C)Cc1cccnc1-2 [Compound 3, 6-(cyclopropanecarboxamido)-N-(methyl-d3)-4-((6-methyl-5,6-dihydrobenzo[h][1,6]naphthyridin-7-yl)amino)nicotinamide] | < 30 | < 30 | > 1000 | > 1000 | > 1000 | > 1000 | > 1000 | > 1000
[2H]C([2H])([2H])NC(=O)c1cnc(NC(=O)C2CC2)cc1Nc1nccc2c1N(C)Cc1cccnc1-2 [Compound 19, 6-(cyclopropanecarboxamido)-N-(methyl-d3)-4-((6-methyl-5,6-dihydropyrido[3,4-h][1,6]naphthyridin-7-yl)amino)nicotinamide] | < 30 | < 30 |  |  |  |  | > 1000 | 300 to 1000
[2H]C([2H])([2H])NC(=O)c1cnc(NC(=O)C2CC2)cc1Nc1nccc2c1N(C)Cc1nccnc1-2 [Compound 14, 6-(cyclopropanecarboxamido)-N-(methyl-d3)-4-((6-methyl-5,6-dihydropyrazino[2,3-c][1,7]naphthyridin-7-yl)amino)nicotinamide] | < 30 | < 30 |  |  |  |  | > 1000 | 
[2H]C([2H])([2H])NC(=O)c1cnc(NC(=O)C2CC2)cc1Nc1cccc2c1N(C)C([2H])([2H])c1cccnc1-2 [Compound 20, 6-(cyclopropanecarboxamido)-N-(methyl-d3)-4-((6-methyl-5,6-dihydrobenzo[h][1,6]naphthyridin-7-yl-5,5-d2)amino)nicotinamide] | < 30 | < 30 |  |  |  |  | > 1000 | 30 to 300
[2H]C([2H])([2H])NC(=O)c1cnc(NC(=O)C2CC2)cc1Nc1cccc2c1N(C([2H])([2H])[2H])Cc1nccnc1-2 [Compound 17, 6-(cyclopropanecarboxamido)-N-(methyl-d3)-4-((6-(methyl-d3)-5,6-dihydropyrazino[2,3-c]quinolin-7-yl)amino)nicotinamide] | < 30 | < 30 | > 1000 | > 1000 | > 1000 | > 1000 | > 1000 | 30 to 300
[2H]C([2H])([2H])NC(=O)c1cnc(NC(=O)C2CC2)cc1Nc1cccc2c1N(C)C([2H])([2H])c1ccc(C)nc1-2 [Compound 24, 6-(cyclopropanecarboxamido)-4-((2,6-dimethyl-5,6-dihydrobenzo[h][1,6]naphthyridin-7-yl-5,5-d2)amino)-N-(methyl-d3)nicotinamide] | < 30 | 30 to 300 |  |  |  |  | > 1000 | > 1000
[2H]C([2H])([2H])NC(=O)c1nnc(NC(=O)C2CC2)cc1Nc1cccc2c1N(C)Cc1cc(F)cnc1-2 [Compound 7, 6-(cyclopropanecarboxamido)-4-((3-fluoro-6-methyl-5,6-dihydrobenzo[h][1,6]naphthyridin-7-yl)amino)-N-(methyl-d3)pyridazine-3-carboxamide] | < 30 | 30 to 300 | > 1000 | > 1000 | > 1000 | > 1000 | 300 to 1000 | 30 to 300
[2H]C([2H])([2H])NC(=O)c1nnc(NC(=O)C2CC2)cc1Nc1cccc2c1N(C)C([2H])([2H])c1ccc(C)nc1-2 [Compound 23, 6-(cyclopropanecarboxamido)-4-((2,6-dimethyl-5,6-dihydrobenzo[h][1,6]naphthyridin-7-yl-5,5-d2)amino)-N-(methyl-d3)pyridazine-3-carboxamide] | < 30 | < 30 |  |  |  |  | > 1000 | 30 to 300
[2H]C([2H])([2H])NC(=O)c1nnc(NC(=O)C2CC2)cc1Nc1cccc2c1N(C)Cc1cccnc1-2 [Compound 1, 6-(cyclopropanecarboxamido)-N-(methyl-d3)-4-((6-methyl-5,6-dihydrobenzo[h][1,6]naphthyridin-7-yl)amino)pyridazine-3-carboxamide] | < 30 | < 30 | > 1000 | > 1000 | > 1000 | > 1000 | > 1000 | > 1000
[2H]C([2H])([2H])NC(=O)c1nnc(NC(=O)C2CC2)cc1Nc1cccc2c1N(C)C([2H])([2H])c1cc(F)cnc1-2 [Compound 21, 6-(cyclopropanecarboxamido)-4-((3-fluoro-6-methyl-5,6-dihydrobenzo[h][1,6]naphthyridin-7-yl-5,5-d2)amino)-N-(methyl-d3)pyridazine-3-carboxamide] | < 30 | 30 to 300 |  |  |  |  | 300 to 1000 | 30 to 300
CNC(=O)c1cnc(NC(=O)C2CC2)cc1Nc1cccc2c1N(C)Cc1cccnc1-2 [Compound 15, 6-(cyclopropanecarboxamido)-N-methyl-4-((6-methyl-5,6-dihydrobenzo[h][1,6]naphthyridin-7-yl)amino)nicotinamide] | < 30 | < 30 |  |  |  |  | > 1000 | 30 to 300
[2H]C([2H])([2H])NC(=O)c1cnc(NC(=O)C2CC2)cc1Nc1cccc2c1N(C)C([2H])([2H])c1ccc(C(F)(F)F)nc1-2 [Compound 25, 6-(cyclopropanecarboxamido)-N-(methyl-d3)-4-((6-methyl-2-(trifluoromethyl)-5,6-dihydrobenzo[h][1,6]naphthyridin-7-yl-5,5-d2)amino)nicotinamide] | 30 to 300 | 300 to 1000 |  |  |  |  |  | 
[2H]C([2H])([2H])NC(=O)c1nnc(NC(=O)C2CC2)cc1Nc1cccc2c1N(C)C([2H])([2H])c1ccc(C(F)(F)F)nc1-2 [Compound 26, 6-(cyclopropanecarboxamido)-N-(methyl-d3)-4-((6-methyl-2-(trifluoromethyl)-5,6-dihydrobenzo[h][1,6]naphthyridin-7-yl-5,5-d2)amino)pyridazine-3-carboxamide] | 300 to 1000 | > 1000 |  |  |  |  | > 1000 | 30 to 300
[2H]C([2H])([2H])NC(=O)c1cnc(NC(=O)C2CC2)cc1Nc1cccc2c1N(C)C([2H])([2H])c1cc(F)cnc1-2 [Compound 22, 6-(cyclopropanecarboxamido)-4-((3-fluoro-6-methyl-5,6-dihydrobenzo[h][1,6]naphthyridin-7-yl-5,5-d2)amino)-N-(methyl-d3)nicotinamide] | < 30 | 30 to 300 |  |  |  |  |  | 
